20 compounds from patent EP0863891B1, “(METHYLSULFONYL)PHENYL-2-(5H)-FURANONES AS COX-2 INHIBITORS” (Merck Frosst Canada & Co., priority 1995, dated 1997) can be followed below.

By IC50 is commonly meant the concentration at which inhibition is half-maximal.

In one assay the target is T1, CHO [hCOX-2] (Homo sapiens, UniProt P35354).
T1 construct: expressed in transfected cells; host or cells: CHO cells, stably transfected with pCDNAIII
T1 sequence (P35354 18-604): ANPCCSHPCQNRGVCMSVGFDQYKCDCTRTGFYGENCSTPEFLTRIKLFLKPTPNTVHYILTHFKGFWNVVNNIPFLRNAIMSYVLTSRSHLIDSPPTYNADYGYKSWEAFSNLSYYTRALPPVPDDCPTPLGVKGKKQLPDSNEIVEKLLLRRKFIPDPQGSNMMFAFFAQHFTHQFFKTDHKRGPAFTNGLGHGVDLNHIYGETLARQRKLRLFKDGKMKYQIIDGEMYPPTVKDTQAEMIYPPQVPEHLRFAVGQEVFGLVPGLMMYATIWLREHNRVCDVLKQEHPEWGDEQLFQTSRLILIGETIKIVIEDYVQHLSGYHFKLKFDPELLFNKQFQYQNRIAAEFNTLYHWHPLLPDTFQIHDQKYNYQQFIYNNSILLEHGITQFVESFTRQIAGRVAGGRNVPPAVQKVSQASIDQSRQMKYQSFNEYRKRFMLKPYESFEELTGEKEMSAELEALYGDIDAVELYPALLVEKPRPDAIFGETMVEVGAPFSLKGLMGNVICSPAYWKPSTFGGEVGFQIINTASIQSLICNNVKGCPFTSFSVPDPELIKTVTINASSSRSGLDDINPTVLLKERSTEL
Description: Whole cell assay for COX-2 using CHO transfected cell line (PGE2 synthesis). Type of assay: cell-based. The method, then: Chinese hamster ovary (CHO) cell lines which have been stably transfected with an eukaryotic expression vector pCDNAIII containing either the human COX-1 or COX-2 cDNA's are used for the assay. These cell lines are referred to as CHO [hCOX-1] and CHO [hCOX-2], respectively. […] Cells (0.3 x 10^6 cells in 200 µl) are preincubated with 3 µl of the test drug or DMSO vehicle for 15 min at 37°C. […] Cells are then challenged in the presence or absence of drug with the AA/HBSS solution to yield a final concentration of 0.5 µM AA in the CHO[hCOX-1] assay and a final concentration of 10 µM AA in the CHO[hCOX-2] assay. […] The samples are centrifuged at 300 x g at 4°C for 10 min, and an aliquot of the clarified supernatant is appropriately diluted for the determination of PGE2 levels using an enzyme-linked immunoassay for PGE2 (Correlate PGE2 enzyme immunoassay kit, Assay Designs, Inc.). Cyclooxygenase activity in the absence of test compounds is determined as the difference in PGE2 levels of cells challenged with arachidonic acid versus the PGE2 levels in cells mock-challenged with ethanol vehicle. Inhibition of PGE2 synthesis by test compounds is calculated as a percentage of the activity in the presence of drug versus the activity in the positive control samples.
In the assay, inhibition is determined by measuring the amount of prostaglandin E2 (PGE2) synthesized in the presence of arachidonic acid, cyclooxygenase-1 or cyclooxygenase-2 and a putative inhibitor.

The target of assay [1] is T2, COX-2 (Homo sapiens, UniProt P35354).
T2 sequence (P35354 18-604): T1 sequence (P35354 18-604)
Description: Assay of the activity of purified human COX-2 (TMPD chromogenic assay). The format is biochemical. Set-up: made in house; host or cells: Sf9 cells. On the procedure:
Assay of the activity of purified human COX-2
The assay mixture (180 µL) contains 100 mM sodium phosphate, pH 6.5, 2 mM genapol X-100, 1 µM hematin, 1 mg/ml gelatin , 80-100 units of purified enzyme (One unit of enzyme is defined as the amount of enzyme required to produce an O.D. change of 0.001/min at 610 nm) and 4 µL of the test compound in DMSO. The mixture is pre-incubated at room temperature (22°C) for 15 minutes prior to initiation of the enzymatic reaction by the addition of 20 µL of a sonicated solution of I mM arachidonic acid (AA) and 1 mM TMPD in assay buffer (without enzyme or hematin). The enzymatic activity is measured by estimation of the initial velocity of TMPD oxidation over the first 36 sec of the reaction. […] IC50 values are derived from 4-parameter least squares non-linear regression analysis of the log-dose vs % inhibition plot.

The target of assay [2] is T2, COX-2. Description: Human whole blood assay, COX-2 (LPS-induced PGE2 production). The format is cell-based. Set-up: endogenous in cells; host or cells: fresh heparinized human whole blood from volunteers, induced with LPS. As to conditions: human whole blood, LPS, 24 hours. From the text: As well, platelets in whole blood contain a large amount of the COX-1 enzyme. Immediately following blood clotting, platelets are activated through a thrombin-mediated mechanism. […] Therefore, the degree of selectivity by the test compound can be determined by measuring the levels of PGE2 after LPS induction (COX-2) and TxB2 following blood clotting (COX-1) in the same assay.
A. COX-2 (LPS-induced PGE2 production)
Fresh blood is collected in heparinized tubes by venipuncture from both male and female volunteers. The subjects have no apparent inflammatory conditions and have not taken any NSAIDs for at least 7 days prior to blood collection. Plasma is immediately obtained from a 2mL blood aliquot to use as blank (basal levels of PGE2).

Setting [3] is: Table IV, CHO[hCOX-2] cells, 10 µM AA, read-out: COX-2(IC50, µM) CHO.
Setting [4] is: Table IV, purified enzyme, TMPD oxidation, read-out: COX-2(IC50, µM) TMPD.
Where [5] appears, read: Table IV, read-out: COX-2(IC50, µM) HWB.
[6] abbreviates: Table III, CHO[hCOX-2] cells, 10 µM AA, read-out: COX-2 (IC50) CHO.
Setting [7] is: Table III, purified enzyme, TMPD oxidation, read-out: COX-2 (IC50) TMPD.
Setting [8] is: Table III, read-out: COX-2 (IC50) HWB.

The structures appear in SMILES notation. Where two headings read alike, the source gives them in different places.

As to `Cc1ccc(OC2=C(c3ccc(S(C)(=O)=O)cc3)C(C)(C)OC2=O)cn1` [Example 39, 3-(2-Methyl-5-pyridyloxy)-5,5-dimethyl-4-(4-(methylsulfonyl)phenyl)-5H-furan-2-one], the IC50 stood at 0.92 µM on CHO [hCOX-2] (setting [3]), 3.3 µM on COX-2 [1] (setting [4]) and 0.08 µM at COX-2 [2] (setting [5]).
For `CC1(C)OC(=O)C(Sc2nccs2)=C1c1ccc(S(C)(=O)=O)cc1` [Example 57, 3-(2-Thiazolylthio)-5,5-dimethyl-4-(4-(methylsulfonyl)phenyl)-5H-furan-2-one], the IC50 at CHO [hCOX-2] (setting [3]) amounted to 2 µM; on COX-2 [1] (setting [4]), 54 µM; on COX-2 [2] (setting [5]), 23 µM.
Consider `CC1(C)OC(=O)C(Oc2cccc(N)n2)=C1c1ccc(S(C)(=O)=O)cc1` [Example 53, 3-(6-Amino-2-pyridyloxy)-5,5-dimethyl-4-(4-(methylsulfonyl)phenyl)-5H-furan-2-one], for which the IC50 at CHO [hCOX-2] (setting [3]) was > 5 µM; on COX-2 [1] (setting [4]) it was 47 µM; on COX-2 [2] (setting [5]), 3 µM.
Take `CC1(C)OC(=O)C(Oc2ccc3ncccc3c2)=C1c1ccc(S(C)(=O)=O)cc1` [Example 55, 3-(6-Quinolinoxy)-5,5-dimethyl-4-(4-(methylsulfonyl)phenyl)-5H-furan-2-one]: the values for the IC50 at CHO [hCOX-2] (setting [3]), at COX-2 [1] (setting [4]) and on COX-2 [2] (setting [5]) were 1.8 µM, 43 µM and 1.2 µM, respectively.
On to `CS(=O)(=O)c1ccc(C2=C(Sc3ccccc3)C(=O)OC23CCCC3)cc1` [Example 21, 4-(4-(Methylsulfonyl)phenyl)-3-phenylthio-1-oxaspiro[4.4]non-3-en-2-one], for which the IC50 on CHO [hCOX-2] (setting [6]) amounted to 0.23 µM; on COX-2 [1] (setting [7]) it was 0.47 µM; at COX-2 [2] (setting [8]), 1.04 µM.
For `CC1(C)OC(=O)C(Sc2ccc(F)cc2)=C1c1ccc(S(C)(=O)=O)cc1` [Example 9, 3-(4-Fluorophenylthio)-5,5-dimethyl-4-(4-(methylsulfonyl)phenyl)-5H-furan-2-one] the same measures were 0.19 µM, 0.5 µM and 0.9 µM.
For the compound `CC1(C)OC(=O)C(Sc2ccc(Cl)cn2)=C1c1ccc(S(C)(=O)=O)cc1` [Example 45, 3-(5-Chloro-2-pyridylthio)-5,5-dimethyl-4-(4-methylsulfonyl)phenyl-5H-furan-2-one], the IC50 at CHO [hCOX-2] (setting [3]) is > 5 µM; at COX-2 [1] (setting [4]), 11 µM; on COX-2 [2] (setting [5]) it was 1.8 µM.
Take `COC1(C)OC(=O)C(Oc2ccc(F)c(F)c2)=C1c1ccc(S(C)(=O)=O)cc1` (centres unmarked) [Example 24c, 3-(3,4-Difluorophenoxy)-5-methoxy-5-methyl-4-(4-(methylsulfonyl)-phenyl)-5H-furan-2-one]: the figures for the IC50 at CHO [hCOX-2] (setting [6]), at COX-2 [1] (setting [7]) and on COX-2 [2] (setting [8]) were 0.03 µM, 3 µM and < 0.41 µM, respectively.
Consider `C[C@]1(CC(F)(F)F)OC(=O)C(Oc2ccc(Cl)cn2)=C1c1ccc(S(C)(=O)=O)cc1` [Example 130, (5R)-3-(5-Chloro-2-pyridyloxy)-5-methyl-4-(4-methylsulfonyl)phenyl-5-(2,2,2-trifluoroethyl)-5H-furan-2-one], for which the figures for the IC50 at CHO [hCOX-2] (setting [3]), at COX-2 [1] (setting [4]) and at COX-2 [2] (setting [5]) were 0.03 µM, 7.9 µM and < 0.4 µM, respectively.
Consider `CC1(C)OC(=O)C(Oc2ccc(Cl)c(Cl)c2)=C1c1ccc(S(C)(=O)=O)cc1` [Example 7, 3-(3,4-Dichlorophenoxy)-5,5-dimethyl-4-(4-(methylsulfonyl)phenyl)-5H-furan-2-one], for which the IC50 amounted to 0.009 µM at CHO [hCOX-2] (setting [6]) and 1.4 µM at COX-2 [1] (setting [7]).
Turning to `CC1(C)OC(=O)C(Oc2ccc3ncsc3c2)=C1c1ccc(S(C)(=O)=O)cc1` [Example 159, 3-(6-benzothiazolyloxy)-5,5-dimethyl-4-(4-(methylsulfonyl)phenyl)-5H-furan-2-one], the IC50 at CHO [hCOX-2] (setting [3]) was determined as 0.07 µM; at COX-2 [1] (setting [4]) it was 25 µM; at COX-2 [2] (setting [5]), 0.26 µM.
For the compound `CN(C1=C(c2ccc(S(C)(=O)=O)cc2)C(C)(C)OC1=O)c1ccccc1` [Example 13, 3-(N-Methyl-N-phenylamino)-5,5-dimethyl-4-(4-(methylsulfonyl)-phenyl)-5H-furan-2-one], the IC50 on CHO [hCOX-2] (setting [6]) amounted to 0.118 µM; on COX-2 [1] (setting [7]) it was 64.4 µM; at COX-2 [2] (setting [8]), 2.65 µM.
In the case of `CCC(CC)OC1=C(c2ccc(S(C)(=O)=O)cc2)C(C)(C)OC1=O` [Example 113, 5,5-Dimethyl-4-(4-methylsulfonylphenyl)-3-(3-pentoxy)-5H-furan-2-one], the IC50 on CHO [hCOX-2] (setting [3]) is 0.03 µM; at COX-2 [1] (setting [4]), 8.7 µM; at COX-2 [2] (setting [5]), < 0.41 µM.
With `CC1(C)OC(=O)C(OC2Cc3ccccc3C2)=C1c1ccc(S(C)(=O)=O)cc1` [Example 176], the IC50 on CHO [hCOX-2] (setting [3]) is 0.03 µM; on COX-2 [1] (setting [4]), 2.2 µM; at COX-2 [2] (setting [5]), 0.08 µM.
For `CCCC1(C)OC(=O)C(Oc2ccc(F)cc2)=C1c1ccc(S(C)(=O)=O)cc1` (centres unmarked) [Example 124, 3-(4-Fluorophenoxy)-5-methyl-4-(4-methylsulfonyl)phenyl-5-propyl-5H-furan-2-one] the same measures were 0.03 µM, 6.3 µM and < 0.41 µM.
`Cc1ccnc(OC2=C(c3ccc(S(C)(=O)=O)cc3)C(C)(C)OC2=O)c1` [Example 116, 3-(4-Methyl-2-pyridyloxy)-5,5-dimethyl-4-(4-methylsulfonyl)phenyl-5H-furan-2-one]: the IC50 is 0.34 µM at CHO [hCOX-2] (setting [3]), 15 µM at COX-2 [1] (setting [4]) and < 0.41 µM on COX-2 [2] (setting [5]).
On to `CS(=O)(=O)c1ccc(C2=C(Oc3ccc(Cl)cn3)C(=O)CC2)cc1` [Example 115, 2-(5-Chloro-2-pyridinoxy)-3-(4-methylsulfonylphenyl)-cyclopent-2-enone], for which the IC50 on CHO [hCOX-2] (setting [3]) amounted to 0.18 µM; at COX-2 [1] (setting [4]), 2.2 µM; on COX-2 [2] (setting [5]), 0.9 µM.
Consider `Cc1nc(OC2=C(c3ccc(S(C)(=O)=O)cc3)C(C)(C)OC2=O)ccc1Cl` [Example 203, 3-(5-Chloro-6-methyl-2-pyridyloxy)-5,5-dimethyl-4-(4-methylsulfonyl)phenyl-5H-furan-2-one], for which the IC50 at CHO [hCOX-2] (setting [3]) is 0.17 µM; at COX-2 [2] (setting [5]), 0.94 µM.
With `CC1(C)OC(=O)C(Oc2ccc([N+](=O)[O-])cn2)=C1c1ccc(S(C)(=O)=O)cc1` [Example 56, 3-(5-Nitro-2-pyridyloxy)-5,5-dimethyl-4-(4-methylsulfonyl)phenyl-5H-furan-2-one], the IC50 was > 5 µM on CHO [hCOX-2] (setting [3]) and 4.8 µM on COX-2 [2] (setting [5]).
As to `CC1(C)OC(=O)C(Nc2ccccc2)=C1c1ccc(S(C)(=O)=O)cc1` [Example 12, 3-(N-Phenylamino)-5,5-dimethyl-4-(4-(methylsulfonyl)phenyl)-5H-furan-2-one], the IC50 against CHO [hCOX-2] was 3.52 µM; against COX-2 [1] it was 14.7 µM.
